Data as given in patent US6872805B2 (Bristol-Myers Squibb Company, priority 2000, dated 2005).

Legend:
[1] = test system: HCV replicon in Huh7 cells; test: HCV replicon cell-based assay; set-up: species or system HCV strain 1B; settings: Hepatitis C virus, Huh-7, 96 h; HCV replicon, Huh7 cells, 4 days; activity ranges; read-out: EC50
Description: An HCV replicon whole cell system was established as described by Lohmann V, Korner F, Koch J, Herian U, Theilmann L, Bartenschlager R., Science 285(5424):110-3 (1999). This system enabled us to evaluate the effects of our HCV Protease compounds on HCV RNA replication. Briefly, using the HCV strain 1B sequence described in the Lohmann paper (Assession number:AJ238799), an HCV cDNA was generated encoding the 5′ internal ribosome entry site (IRES), the neo gene, the EMCV-IRES and the HCV nonstructural proteins, NS3-NS5B, and 3′ NTR. […] Resulting cell lines were characterized for positive and negative RNA production and protein production over time.
Huh7 cells, constitutively expressing the HCV replicon, were grown in DMEM containing 10% FCS (Fetal calf serum) and 1 mg/ml G418 (Gibco-BRL). Cells were seeded the night before (1.5×10^4 cells/well) in 96-well tissue-culture sterile plates. Compound was prepared in DMEM containing 4% FCS, 1:100 Penicillin/Streptomysin, 1:100 L-glutamine and 0.5% DMSO. Compound/DMSO mixes were added to the cells and incubated for 4 days at 37° C. After 4 days, cells were either lyzed using the Rneasy kit (Qiagen) to isolate and purify RNA for an EC50 determination or assessed for cytotoxicity using alamar Blue (Trek Diagnotstic Systems) for a CC50 reading. For an EC50 determination, purified total RNA was normalized using RiboGreen (Jones L J, Yue S T, Cheung C Y, Singer V L, Anal. Chem., 265(2):368-74 (1998)) and relative quantitation of HCV RNA expression assessed using the Taqmann procedure (Kolykhalov A A, Mihalik K, Feinstone S M, Rice C M, Journal of Virology 74, 2046-2051 (2000)). Briefly, RNA made to a volume of 5 μl (≦1 ng) was added to a 20 μl Ready-Mix containing the following: 5×EZ rTth buffer, 3 mM MnOAc2, 3 mM dNTPs, 200 nM forward primer, 600 nM reverse primer, 100 nM probe and rTth polymerase. Samples containing known concentrations of HCV RNA transcript were run as standards. Using the following cycling protocol (95° C., 1 min; 60° C., 0.5 min; 95° C., 2 min; 40 cycles of 94° C., 0.5 min, 60° C.; 1 min; and completing with 60° C., 10 min), HCV RNA expression was quantitated as described in the Perkin Elmer manual. The toxicity of compound (CC50) was determined by adding 1/10th volume of alamar Blue to the media incubating the cells. After 4 hr, the fluorescence signal from each well was read, with an excitation wavelength at 530 nm and an emission wavelength of 580 nm, using the Cytofluor Series 4000 (Perspective Biosystems).

[2] = target: HCV NS3/4A protease complex (Hepatitis C virus genotype 1a, UniProt P27958, C1454S/C1711G); test: Recombinant HCV NS3/4A protease complex FRET peptide assay (strain not stated); type: biochemical; settings: IC50, NS3/4A protease enzyme assay, strain not stated; activity ranges
Chain of HCV NS3/4A protease complex (P27958 1027-1711, stated change not applied): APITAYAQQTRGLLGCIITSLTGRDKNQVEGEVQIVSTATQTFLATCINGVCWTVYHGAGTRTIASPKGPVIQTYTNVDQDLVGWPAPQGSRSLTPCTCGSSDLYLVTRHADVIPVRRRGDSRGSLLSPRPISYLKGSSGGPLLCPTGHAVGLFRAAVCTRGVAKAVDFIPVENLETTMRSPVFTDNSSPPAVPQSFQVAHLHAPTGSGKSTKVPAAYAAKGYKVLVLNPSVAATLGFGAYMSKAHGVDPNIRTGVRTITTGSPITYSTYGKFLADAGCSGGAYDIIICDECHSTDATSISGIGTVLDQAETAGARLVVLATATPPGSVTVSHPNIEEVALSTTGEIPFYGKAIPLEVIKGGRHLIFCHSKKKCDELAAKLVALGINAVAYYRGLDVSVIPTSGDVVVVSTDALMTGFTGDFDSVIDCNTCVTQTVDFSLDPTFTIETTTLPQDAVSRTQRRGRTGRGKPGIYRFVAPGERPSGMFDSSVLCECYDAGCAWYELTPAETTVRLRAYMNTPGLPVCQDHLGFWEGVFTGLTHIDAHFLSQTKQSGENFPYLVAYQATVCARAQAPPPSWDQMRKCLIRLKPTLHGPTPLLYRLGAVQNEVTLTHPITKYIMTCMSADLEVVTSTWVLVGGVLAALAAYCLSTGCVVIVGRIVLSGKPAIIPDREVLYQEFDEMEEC
Chain of HCV NS3/4A protease complex (P27958 1027-1711, stated change not applied): as above

| Structure (SMILES) | EC50 [1] [µM] | IC50 [2] [µM] |
| --- | --- | --- |
| C=CC1C[C@]1(NC(=O)[C@@H]1C[C@@H](Oc2cc(-c3ccccc3)nc3cc(OC)ccc23)CN1C(=O)[C@@H](NC(=O)OC(C)(C)C)C(C)(C)C)C(=O)NS(=O)(=O)C(C)C (some centres unmarked) [Compound 27] | < 0.5 | < 0.05 |
| C=CC1C[C@]1(NC(=O)[C@@H]1C[C@@H](Oc2cc(-c3ccccc3)nc3cc(OC)ccc23)CN1C(=O)[C@@H](N)C(C)(C)C)C(=O)NS(=O)(=O)C1CC1 (some centres unmarked) [Compound 28] | < 5 | < 0.05 |
| C=CC1C[C@]1(NC(=O)[C@@H]1C[C@@H](Oc2cc(-c3ccccc3)nc3cc(OC)ccc23)CN1C(=O)[C@@H](NC(=O)OC(C)(C)C)C1CCCC1)C(=O)NS(=O)(=O)C1CC1 (some centres unmarked) [Compound 29] | < 0.05 | < 0.05 |
| C=CC1C[C@]1(NC(=O)[C@@H]1C[C@@H](Oc2cc(-c3ccccc3)nc3cc(OC)ccc23)CN1C(=O)[C@@H](NC(=O)OC(C)(C)C)C1CCCC1)C(=O)NS(=O)(=O)C(C)C (some centres unmarked) [Compound 30] | < 0.05 | < 0.05 |
| C=CC1C[C@]1(NC(=O)[C@@H]1C[C@@H](Oc2cc(-c3ccccc3)nc3cc(OC)ccc23)CN1C(=O)[C@@H](NC(=O)OC(C)(C)C)C(C)C)C(=O)NS(=O)(=O)C1CC1 (some centres unmarked) [Compound 31] | < 0.05 | < 0.05 |
| C=CC1C[C@]1(NC(=O)[C@@H]1C[C@@H](Oc2cc(-c3ccccc3)nc3cc(OC)ccc23)CN1C(=O)[C@@H](NC(=O)OC(C)(C)C)C(C)C)C(=O)NS(=O)(=O)C(C)C (some centres unmarked) [Compound 32] | < 0.05 | < 0.05 |
| C=CC1C[C@]1(NC(=O)[C@@H]1C[C@@H](Oc2cc(-c3ccccc3)nc3cc(OC)ccc23)CN1C(=O)[C@H](CC(C)C)NC(=O)OC(C)(C)C)C(=O)NS(=O)(=O)C1CC1 (some centres unmarked) [Compound 33] | < 0.05 | < 0.05 |
| C=CC1C[C@]1(NC(=O)[C@@H]1C[C@@H](Oc2cc(-c3ccccc3)nc3cc(OC)ccc23)CN1C(=O)[C@H](CC(C)C)NC(=O)OC(C)(C)C)C(=O)NS(=O)(=O)C(C)C (some centres unmarked) [Compound 34] | < 0.5 | < 0.05 |
| C=CC1C[C@]1(NC(=O)[C@@H]1C[C@@H](Oc2cc(-c3ccccc3)nc3cc(OC)ccc23)CN1C(=O)C(NC(=O)OC(C)(C)C)C(C)(C)C)C(=O)NS(=O)(=O)c1cccc2ccccc12 (some centres unmarked) [Compound 35] | < 0.5 | < 0.05 |
| C=CCC[C@](C)(NC(=O)[C@@H]1C[C@@H](Oc2cc(-c3ccccc3)nc3cc(OC)ccc23)CN1C(=O)C(NC(=O)OC(C)(C)C)C(C)(C)C)C(=O)NS(=O)(=O)c1cccc(C)c1 (some centres unmarked) [Compound 36] | < 0.5 | < 0.05 |
| C=CCC[C@](C)(NC(=O)[C@@H]1C[C@@H](Oc2cc(-c3ccccc3)nc3cc(OC)ccc23)CN1C(=O)C(NC(=O)OC(C)(C)C)C(C)(C)C)C(=O)NS(=O)(=O)c1ccc(C)cc1 (some centres unmarked) [Compound 37] | < 0.05 | < 0.05 |
| C=CCC[C@](C)(NC(=O)[C@@H]1C[C@@H](Oc2cc(-c3ccccc3)nc3cc(OC)ccc23)CN1C(=O)C(NC(=O)OC(C)(C)C)C(C)(C)C)C(=O)NS(=O)(=O)c1ccccc1 (some centres unmarked) [Compound 38] | < 0.05 | < 0.05 |
| C=CCC[C@](C)(NC(=O)[C@@H]1C[C@@H](Oc2cc(-c3ccccc3)nc3cc(OC)ccc23)CN1C(=O)C(NC(=O)OC(C)(C)C)C(C)(C)C)C(=O)NS(=O)(=O)c1cccc(C#N)c1 (some centres unmarked) [Compound 40] | < 0.5 | < 0.05 |
| C=CCC[C@](C)(NC(=O)[C@@H]1C[C@@H](Oc2cc(-c3ccccc3)nc3cc(OC)ccc23)CN1C(=O)C(NC(=O)OC(C)(C)C)C(C)(C)C)C(=O)NS(=O)(=O)c1ccc(C#N)cc1 (some centres unmarked) [Compound 41] | < 0.5 | < 0.05 |
| C=CCC[C@](C)(NC(=O)[C@@H]1C[C@@H](Oc2cc(-c3ccccc3)nc3cc(OC)ccc23)CN1C(=O)C(NC(=O)OC(C)(C)C)C(C)(C)C)C(=O)NS(=O)(=O)c1ccccc1Cl (some centres unmarked) [Compound 42] | < 0.5 | < 0.05 |
| C=CCC[C@](C)(NC(=O)[C@@H]1C[C@@H](Oc2cc(-c3ccccc3)nc3cc(OC)ccc23)CN1C(=O)C(NC(=O)OC(C)(C)C)C(C)(C)C)C(=O)NS(=O)(=O)c1cccc(Cl)c1 (some centres unmarked) [Compound 43] | < 0.5 | < 0.05 |
| C=CCC[C@](C)(NC(=O)[C@@H]1C[C@@H](Oc2cc(-c3ccccc3)nc3cc(OC)ccc23)CN1C(=O)C(NC(=O)OC(C)(C)C)C(C)(C)C)C(=O)NS(=O)(=O)c1ccc(Cl)cc1 (some centres unmarked) [Compound 44] | < 0.5 | < 0.05 |
| C=CCC[C@](C)(NC(=O)[C@@H]1C[C@@H](Oc2cc(-c3ccccc3)nc3cc(OC)ccc23)CN1C(=O)C(NC(=O)OC(C)(C)C)C(C)(C)C)C(=O)NS(=O)(=O)c1ccc(F)c(Cl)c1 (some centres unmarked) [Compound 45] | < 0.5 | < 0.05 |
| C=C1C[C@]1(NC(=O)[C@@H]1C[C@@H](Oc2cc(-c3ccccc3)nc3cc(OC)ccc23)CN1C(=O)C(NC(=O)OC(C)(C)C)C(C)(C)C)C(=O)NS(=O)(=O)c1cc(F)ccc1C (some centres unmarked) [Compound 46] | < 0.5 | < 0.05 |
| C=C1C[C@]1(NC(=O)[C@@H]1C[C@@H](Oc2cc(-c3ccccc3)nc3cc(OC)ccc23)CN1C(=O)C(NC(=O)OC(C)(C)C)C(C)(C)C)C(=O)NS(=O)(=O)c1ccccc1C(F)(F)F (some centres unmarked) [Compound 47] | < 0.5 | < 0.05 |
| C=C1C[C@]1(NC(=O)[C@@H]1C[C@@H](Oc2cc(-c3ccccc3)nc3cc(OC)ccc23)CN1C(=O)C(NC(=O)OC(C)(C)C)C(C)(C)C)C(=O)NS(=O)(=O)c1cccc(C(F)(F)F)c1 (some centres unmarked) [Compound 48] | < 0.5 | < 0.05 |
| C=C1C[C@]1(NC(=O)[C@@H]1C[C@@H](Oc2cc(-c3ccccc3)nc3cc(OC)ccc23)CN1C(=O)C(NC(=O)OC(C)(C)C)C(C)(C)C)C(=O)NS(=O)(=O)c1ccc(F)cc1 (some centres unmarked) [Compound 49] | < 0.5 | < 0.05 |
| C=CC1C[C@]1(NC(=O)[C@@H]1C[C@@H](Oc2cc(-c3ccccc3)nc3cc(OC)ccc23)CN1C(=O)[C@@H](NC(=O)OC(C)(C)C)C(C)(C)C)C(=O)NS(=O)(=O)c1ccccc1C#N (some centres unmarked) [Compound 50] | < 5 | < 0.5 |
| C=CC1C[C@]1(NC(=O)[C@@H]1C[C@@H](Oc2cc(-c3ccccc3)nc3cc(OC)ccc23)CN1C(=O)[C@@H](NC(=O)OC(C)(C)C)C(C)(C)C)C(=O)NS(=O)(=O)c1ccccc1[N+](=O)[O-] (some centres unmarked) [Compound 51] | < 0.5 | < 0.05 |
| C=CC1C[C@]1(NC(=O)[C@@H]1C[C@@H](Oc2cc(-c3ccccc3)nc3cc(OC)ccc23)CN1C(=O)[C@@H](NC(=O)OC(C)(C)C)C(C)(C)C)C(=O)NS(=O)(=O)c1ccc([N+](=O)[O-])cc1 (some centres unmarked) [Compound 52] | < 0.5 | < 0.5 |
| C=CC1C[C@]1(NC(=O)[C@@H]1C[C@@H](Oc2cc(-c3ccccc3)nc3cc(OC)ccc23)CN1C(=O)[C@@H](NC(=O)OC(C)(C)C)C(C)(C)C)C(=O)NS(=O)(=O)c1cccc([N+](=O)[O-])c1 (some centres unmarked) [Compound 53] | < 50 | < 0.05 |
| C=C1C[C@]1(NC(=O)[C@@H]1C[C@@H](Oc2cc(-c3ccccc3)nc3cc(OC)ccc23)CN1C(=O)C(NC(=O)OC(C)(C)C)C(C)(C)C)C(=O)NS(=O)(=O)c1ccccc1F (some centres unmarked) [Compound 54] | < 0.5 | < 0.05 |
| C=C1C[C@]1(NC(=O)[C@@H]1C[C@@H](Oc2cc(-c3ccccc3)nc3cc(OC)ccc23)CN1C(=O)C(NC(=O)OC(C)(C)C)C(C)(C)C)C(=O)NS(=O)(=O)c1cccc(Br)c1 (some centres unmarked) [Compound 55] | < 0.05 | < 0.05 |
